Measured values taken from US9540343B2 (Gilead Sciences, Inc., priority 2011, dated 2017).

Each molecule was assayed on HIV-IIIb (assay: Test A: Antiviral assay in MT4 cells). Settings: Human immunodeficiency virus 1, IIIB, MT4, 120 h, read-out: % inhibition at 2 μM, percent inhibition of virus-induced cell killing, from dose response curve at 2 uM drug; MT-4 cells infected with HIV-IIIb, 5 days, CellTiter-Glo.
Type: cell-based, HIV-1

Q: Which inhibition at 2 µM does the source give for `NC(=O)c1cc(-c2cccnc2[C@H](Cc2cc(F)cc(F)c2)NC(=O)Cn2nc(C(F)(F)F)c3c2CCCC3)ccc1F` [Example 589, (S)-5-(2-(2-(3,5-difluorophenyl)-1-(2-(3-(trifluoromethyl)-4,5,6,7-tetrahydro-1H-indazol-1-yl)acetamido)ethyl)pyridin-3-yl)-2-fluorobenzamide] here?
A: Its inhibition at 2 µM is 106%.

Q: With `O=C(Cc1c[nH]c2ccc(O)cc12)N[C@@H](Cc1cc(F)cc(F)c1)c1ncncc1-c1ccc(Cl)cc1` [Example 316, (S)—N-(1-(5-(4-chlorophenyl)pyrimidin-4-yl)-2-(3,5-difluorophenyl)ethyl)-2-(5-hydroxy-1H-indol-3-yl)acetamide] as the molecule, how does the inhibition at 2 µM read?
A: The inhibition at 2 µM was 100%.

Q: Which inhibition at 2 µM does the source give for `NC(=O)c1cc(-c2cccnc2[C@H](Cc2cc(F)cc(F)c2)NC(=O)Cn2nc(C(F)F)c3c2C2CCC3C2)ccc1F` (stereo partly drawn) [Example 83, (S)-5-(2-(2-(3,5-difluorophenyl)-1-(2-(4,5,6,7-tetrahydro-3-difluoromethyl-4,7-(methano)indazol-1-yl)acetamido)ethyl)pyridin-3-yl)-2-fluorobenzamide] here?
A: The inhibition at 2 µM was 92%.

Q: `NC(=O)c1cc(-c2cccnc2[C@H](Cc2cc(F)cc(F)c2)NC(=O)Cn2nc(C(F)F)c3c2C(F)(F)CCC3(F)F)ccc1F` [Example 344, (S)-5-(2-(1-(2-(3-(difluoromethyl)-4,4,7,7-tetrafluoro-4,5,6,7-tetrahydro-1H-indazol-1-yl)acetamido)-2-(3,5-difluorophenyl)ethyl)pyridin-3-yl)-2-fluorobenzamide] was tested. Which inhibition at 2 µM did it give?
A: Its inhibition at 2 µM is 93%.

Q: `NC(=O)c1cccc(-c2cccnc2[C@H](Cc2cc(F)cc(F)c2)NC(=O)Cc2c[nH]c3ccc(O)cc23)c1` [Example 39, (S)-3-(2-(2-(3,5-difluorophenyl)-1-(2-(5-hydroxy-1H-indol-3-yl)acetamido)ethyl)pyridin-3-yl)benzamide] was tested. Which inhibition at 2 µM did it give?
A: Its inhibition at 2 µM is 99%.

Q: `NC(=O)c1cc(-c2cccnc2[C@H](Cc2cc(F)cc(F)c2)NC(=O)Cn2nc(C(F)(F)F)c3c2C(F)(F)C2CC32)ccc1F` (stereo partly drawn) [Example 181E, 5-(2-((1S)-1-(2-(5,5-difluoro-3-(trifluoromethyl)-3b,4,4a,5-tetrahydro-1H-cyclopropa[3,4]cyclopenta[1,2-c]pyrazol-1-yl)acetamido)-2-(3,5-difluorophenyl)ethyl)pyridin-3-yl)-2-fluorobenzamide] was tested. Which inhibition at 2 µM did it give?
A: Its inhibition at 2 µM is 99%.

Q: `NC(=O)c1cc(-c2cccnc2[C@H](Cc2cc(F)cc(F)c2)NC(=O)Cn2nc(C(F)(F)F)c3c2C[C@H]2C[C@@H]32)ccc1F` (single isomer, unassigned) [Example 173] was tested. Which inhibition at 2 µM did it give?
A: Its inhibition at 2 µM is 94%.

Q: For `NC(=O)c1cccc(-c2cccnc2[C@H](Cc2cc(F)cc(F)c2)NC(=O)Cn2ccc3ccccc32)c1` [Example 426, (S)-3-(2-(1-(2-(1H-indol-1-yl)acetamido)-2-(3,5-difluorophenyl)ethyl)pyridin-3-yl)benzamide], which inhibition at 2 µM is on record?
A: Its inhibition at 2 µM is 19%.

Q: Which inhibition at 2 µM does the source give for `NC(=O)c1cc(-c2cccnc2[C@H](Cc2cc(F)cc(F)c2)NC(=O)Cn2nc(C(F)(F)F)c3ccccc32)ccc1F` [Example 250, (S)-5-(2-(2-(3,5-difluorophenyl)-1-(2-(3-(trifluoromethyl)-1H-indazol-1-yl)acetamido)ethyl)pyridin-3-yl)-2-fluorobenzamide] here?
A: Its inhibition at 2 µM is 19%.

Q: `NC(=O)c1cc(-c2cccnc2[C@H](Cc2cc(F)cc(F)c2)NC(=O)Cn2nc(C(F)(F)F)c3c2C2CC2C3(F)F)ccc1F` (stereo partly drawn) [Example 462J, 5-(2-((1S)-1-(2-(4,4-difluoro-3-(trifluoromethyl)-4,4-a,5,5a-tetrahydro-1H-cyclopropa[4,5]cyclopenta[1,2-c]pyrazol-1-yl)acetamido)-2-(3,5-difluorophenyl)ethyl)pyridin-3-yl)-2-fluorobenzamide] was tested. Which inhibition at 2 µM did it give?
A: The inhibition at 2 µM was 2%.

Q: How did the inhibition at 2 µM turn out when `NC(=O)c1cc(-c2cccnc2[C@H](Cc2cc(F)cc(F)c2)NC(=O)Cn2nc(C(F)(F)F)c3c2C(F)(F)CCC3)ccc1F` [Example 311B, (S)-5-(2-(1-(2-(7,7-difluoro-3-(trifluoromethyl)-4,5,6,7-tetrahydro-1H-indazol-1-yl)acetamido)-2-(3,5-difluorophenyl)ethyl)pyridin-3-yl)-2-fluorobenzamide] was run?
A: Its inhibition at 2 µM is 97%.

Q: With `NC(=O)c1cc(-c2cccnc2[C@H](Cc2cc(F)cc(F)c2)NC(=O)Cn2nc(C(F)F)c3c2C(F)(F)C2CC32)ccc1F` (single isomer, unassigned) [Example 215] as the molecule, how does the inhibition at 2 µM read?
A: The inhibition at 2 µM was 80%.

Q: For `NC(=O)c1cc(-c2cccnc2[C@H](Cc2cc(F)cc(F)c2)NC(=O)Cn2nc(C(F)(F)F)c3c2C[C@@H]2C[C@H]32)ccc1F` (single isomer, unassigned) [Example 174], which inhibition at 2 µM is on record?
A: Its inhibition at 2 µM is 71%.

Q: With `NC(=O)c1cc(-c2cccnc2[C@H](Cc2cc(F)cc(F)c2)NC(=O)Cn2nc(C(F)(F)F)c3c2CC2CC32)ccc1F` (stereo partly drawn) [Example 122G, 5-(2-((1S)-2-(3,5-difluorophenyl)-1-(2-(3-(trifluoromethyl)-3b,4,4a,5-tetrahydro-1H-cyclopropa[3,4]cyclopenta[1,2-c]pyrazol-1-yl)acetamido)ethyl)pyridin-3-yl)-2-fluorobenzamide] as the molecule, how does the inhibition at 2 µM read?
A: The inhibition at 2 µM was 101%.

Q: For `NC(=O)c1cc(-c2cccnc2[C@H](Cc2cc(F)cc(F)c2)NC(=O)Cn2nc(C(F)(F)F)c3c2CCOC3)ccc1F` [Example 112B, (S)-5-(2-(2-(3,5-difluorophenyl)-1-(2-(3-(trifluoromethyl)-6,7-dihydropyrano[4,3-c]pyrazol-1(4H)-yl)acetamido)ethyl)pyridin-3-yl)-2-fluorobenzamide], which inhibition at 2 µM is on record?
A: The inhibition at 2 µM was 28%.

Q: With `NC(=O)c1cccc(-c2cccnc2[C@H](Cc2cc(F)cc(F)c2)NC(=O)Cc2c[nH]c3ccc(F)cc23)c1` [Example 50D, (S)-3-(2-(2-(3,5-difluorophenyl)-1-(2-(5-fluoro-1H-indol-3-yl)acetamido)ethyl)pyridin-3-yl)benzamide] as the molecule, how does the inhibition at 2 µM read?
A: Its inhibition at 2 µM is 106%.

Q: `NC(=O)c1cc(-c2cccnc2[C@H](Cc2cc(F)cc(F)c2)NC(=O)Cn2nc(C(F)(F)F)c3c2C2CC2C3)ccc1F` (stereo partly drawn) [Example 169E, 5-(2-((1S)-2-(3,5-difluorophenyl)-1-(2-(3-(trifluoromethyl)-4,4-a,5,5a-tetrahydro-1H-cyclopropa[4,5]cyclopenta[1,2-c]pyrazol-1-yl)acetamido)ethyl)pyridin-3-yl)-2-fluorobenzamide] was tested. Which inhibition at 2 µM did it give?
A: The inhibition at 2 µM was 94%.

Q: With `O=C(Cc1c[nH]c2ccc(O)cc12)NC(Cc1cc(F)cc(F)c1)c1nccnc1-c1ccc(Cl)cc1` (stereo not shown) [Example 443I, N-(1-(3-(4-chlorophenyl)pyrazin-2-yl)-2-(3,5-difluorophenyl)ethyl)-2-(5-hydroxy-1H-indol-3-yl)acetamide] as the molecule, how does the inhibition at 2 µM read?
A: Its inhibition at 2 µM is 82%.

Q: Which inhibition at 2 µM does the source give for `NC(=O)c1cc(-c2cccnc2[C@H](Cc2cc(F)cc(F)c2)NC(=O)Cn2ccc(C(F)(F)F)n2)ccc1F` [Example 455, (S)-5-(2-(2-(3,5-difluorophenyl)-1-(2-(3-(trifluoromethyl)-1H-pyrazol-1-yl)acetamido)ethyl)pyridin-3-yl)-2-fluorobenzamide] here?
A: Its inhibition at 2 µM is 4%.

Q: With `NC(=O)c1cc(-c2cccnc2[C@H](Cc2cc(F)cc(F)c2)NC(=O)Cn2nc(C(F)F)c3c2C(F)(F)C2CC32)ccc1F` (stereo partly drawn) [Example 60H, 5-(2-((1S)-1-(2-(3-(difluoromethyl)-5,5-difluoro-3b,4,4a,5-tetrahydro-1H-cyclopropa[3,4]cyclopenta[1,2-c]pyrazol-1-yl)acetamido)-2-(3,5-difluorophenyl)ethyl)pyridin-3-yl)-2-fluorobenzamide] as the molecule, how does the inhibition at 2 µM read?
A: The inhibition at 2 µM was 97%.

Q: `NC(=O)c1cc(-c2cccnc2[C@H](Cc2cc(F)cc(F)c2)NC(=O)Cn2nc(C(F)(F)F)c3c2CCCC3(F)F)ccc1F` [Example 102D, (S)-5-(2-(1-(2-(4,4-difluoro-3-(trifluoromethyl)-4,5,6,7-tetrahydro-1H-indazol-1-yl)acetamido)-2-(3,5-difluorophenyl)ethyl)pyridin-3-yl)-2-fluorobenzamide] was tested. Which inhibition at 2 µM did it give?
A: Its inhibition at 2 µM is 50%.

Q: Which inhibition at 2 µM does the source give for `O=C(Cc1c[nH]c2ccc(O)cc12)N[C@H](Cc1cc(F)cc(F)c1)c1ncncc1-c1ccc(Cl)cc1` [Example 284, (R)—N-(1-(5-(4-chlorophenyl)pyrimidin-4-yl)-2-(3,5-difluorophenyl)ethyl)-2-(5-hydroxy-1H-indol-3-yl)acetamide] here?
A: The inhibition at 2 µM was 50%.

Q: `NC(=O)c1cc(-c2cccnc2[C@H](Cc2cc(F)cc(F)c2)NC(=O)Cn2nc(C(F)F)c(C3CC3)c2C(F)F)ccc1F` [Example 562, (S)-5-(2-(1-(2-(4-cyclopropyl-3,5-bis(difluoromethyl)-1H-pyrazol-1-yl)acetamido)-2-(3,5-difluorophenyl)ethyl)pyridin-3-yl)-2-fluorobenzamide] was tested. Which inhibition at 2 µM did it give?
A: The inhibition at 2 µM was 42%.

Q: How did the inhibition at 2 µM turn out when `NC(=O)c1cc(-c2cccnc2[C@H](Cc2cc(F)cc(F)c2)NC(=O)Cn2nc(C(F)(F)F)c3c2CCC3)ccc1F` [Example 134, (S)-5-(2-(2-(3,5-difluorophenyl)-1-(2-(3-(trifluoromethyl)-5,6-dihydrocyclopenta[c]pyrazol-1(4H)-yl)acetamido)ethyl)pyridin-3-yl)-2-fluorobenzamide] was run?
A: Its inhibition at 2 µM is 98%.

Same assay, conditions: percent inhibition of virus-induced cell killing, from dose response curve at 2 uM drug; MT-4 cells infected with HIV-IIIb, 5 days, CellTiter-Glo

Q: Which “% inhibition at 2 μM” value does the source give for `NC(=O)c1cc(-c2cccnc2[C@H](Cc2cc(F)cc(F)c2)NC(=O)Cn2nc(C(F)(F)F)c3c2C(F)(F)C2CC32)ccc1F` (single isomer, unassigned) [Example 450] here?
A: The value was 33%.

Q: Which “% inhibition at 2 μM” value does the source give for `NC(=O)c1cc(-c2cccnc2[C@H](Cc2cc(F)cc(F)c2)NC(=O)Cn2nc(C(F)(F)F)c3c2[C@@H]2C[C@@H]2C3)ccc1F` [Example 187, 5-(2-((S)-2-(3,5-difluorophenyl)-1-(2-((4aR,5aR)-3-(trifluoromethyl)-4,4-a,5,5a-tetrahydro-1H-cyclopropa[4,5]cyclopenta[1,2-c]pyrazol-1-yl)acetamido)ethyl)pyridin-3-yl)-2-fluorobenzamide] here?
A: Its value is 31%.

Q: How did the “% inhibition at 2 μM” value turn out when `NC(=O)c1cc(-c2cccnc2[C@H](Cc2cc(F)cc(F)c2)NC(=O)Cn2nc(C(F)F)c3c2C(F)(F)C2CC32)ccc1F` (single isomer, unassigned) [Example 216] was run?
A: The value was 86%.

Q: Which “% inhibition at 2 μM” value does the source give for `NC(=O)c1cc(-c2cccnc2[C@H](Cc2cc(F)cc(F)c2)NC(=O)Cn2nc(C(F)(F)F)c3c2C(F)(F)C2CC32)ccc1F` (single isomer, unassigned) [Example 449] here?
A: Its value is 94%.
